In PubChem BioAssay AID1963424 (Molecular Pharmacology Branch, DTP, NCI, 2024):
Values joined by “and” are separate entries in the source; they are usually repeats but may differ in a detail not shown here. Equal entries are not always repeated.

Tested on: 327498-153-R-J2-PDC complex spheroid growth, % test/control
Experiment: Anticancer human tumor 327498-153-R-J2-PDC patient-derived uterine carcinosarcoma cell line growth inhibition [Asc]
Conditions: for viability, T/C: stronger effect = lower value
Summary of the method: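 Stromal components (HUVEC and hMSC) are co-assembled with the cancer cells into multicellular spheroids. Drugs are then added singly or paired, at concentrations falling by half-log increments from a clinically achievable maximum, capped at 10 microM without known Cmax.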

[1] = curve of first compound, second compound 0.01 µM
[2] = curve of first compound, second compound 0.0316 µM
[3] = curve of first compound, second compound 0.1 µM
[4] = curve of first compound, second compound 0.316 µM
[5] = curve of first compound, second compound 1 µM
[6] = second compound 0.01 µM, first compound 0.0316 µM
[7] = second compound 0.01 µM, first compound 0.1 µM
[8] = second compound 0.01 µM, first compound 0.316 µM
[9] = second compound 0.01 µM, first compound 1 µM
[10] = second compound 0.01 µM, first compound 3.16 µM
[11] = second compound 0.01 µM, first compound 10 µM
[12] = second compound 0.0316 µM, first compound 0.0316 µM
[13] = second compound 0.0316 µM, first compound 0.1 µM
[14] = second compound 0.0316 µM, first compound 0.316 µM
[15] = second compound 0.0316 µM, first compound 1 µM
[16] = second compound 0.0316 µM, first compound 3.16 µM
[17] = second compound 0.0316 µM, first compound 10 µM
[18] = second compound 0.1 µM, first compound 0.0316 µM
[19] = second compound 0.1 µM, first compound 0.1 µM
[20] = second compound 0.1 µM, first compound 0.316 µM
[21] = second compound 0.1 µM, first compound 1 µM
[22] = second compound 0.1 µM, first compound 3.16 µM
[23] = second compound 0.1 µM, first compound 10 µM
[24] = second compound 0.316 µM, first compound 0.0316 µM
[25] = second compound 0.316 µM, first compound 0.1 µM
[26] = second compound 0.316 µM, first compound 0.316 µM
[27] = second compound 0.316 µM, first compound 1 µM
[28] = second compound 0.316 µM, first compound 3.16 µM
[29] = second compound 0.316 µM, first compound 10 µM
[30] = second compound 1 µM, first compound 0.0316 µM
[31] = second compound 1 µM, first compound 0.1 µM
[32] = second compound 1 µM, first compound 0.316 µM
[33] = second compound 1 µM, first compound 1 µM
[34] = second compound 1 µM, first compound 3.16 µM
[35] = second compound 1 µM, first compound 10 µM
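Note: spheroids exposed to compound for 7 days after 3 days of growth.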
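Throughout, for viability, T/C: 100% = DMSO vehicle control wells.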

Cn1ncnc1[C@H]1c2n[nH]c(=O)c3cc(F)cc(c23)N[C@@H]1c1ccc(F)cc1
viability, T/C (compound 0.000316 µM): 95.8% and 103% and 101%
viability, T/C (compound 0.001 µM): 93.7% and 105% and 94%
viability, T/C (compound 0.00316 µM): 88.7% and 110% and 91.1%
viability, T/C (compound 0.01 µM): 61.8% and 77.4% and 65.8%
viability, T/C (compound 0.0316 µM): 28.1% and 33.8% and 26.1%
viability, T/C (compound 0.1 µM): 12.9% and 16.1% and 13.9%
IC50 (curve of compound): 15.1 nM and 20.5 nM and 15.8 nM

C=C(F)C(=O)N1CCN(c2nc(OCC3CCCN3C)nc3c2CCN(c2cccc4cccc(Cl)c24)C3)CC1CC#N (configuration not stated) + CNC(C)C(=O)NC1CN(S(=O)(=O)c2cccc(S(=O)(=O)N3CCC4CCC(C(=O)NC(c5ccccc5)c5ccccc5)N4C(=O)C(NC(=O)C(C)NC)C3)c2)CCC2CCC(C(=O)NC(c3ccccc3)c3ccccc3)N2C1=O
IC50 [1]: 1310 nM
IC50 [2]: 1180 nM
IC50 [3]: 1350 nM
IC50 [4]: 1200 nM
IC50 [5]: 985 nM
viability, T/C [6]: 74.3%
viability, T/C [7]: 71%
viability, T/C [8]: 58.4%
viability, T/C [9]: 61.6%
viability, T/C [10]: 14.5%
viability, T/C [11]: 0.14%
viability, T/C [12]: 73.2%
viability, T/C [13]: 71.6%
viability, T/C [14]: 64.5%
viability, T/C [15]: 56.8%
viability, T/C [16]: 16.2%
viability, T/C [17]: 0.14%
viability, T/C [18]: 76%
viability, T/C [19]: 67.6%
viability, T/C [20]: 74.3%
viability, T/C [21]: 62.6%
viability, T/C [22]: 14.1%
viability, T/C [23]: 0.13%
viability, T/C [24]: 75.3%
viability, T/C [25]: 74.7%
viability, T/C [26]: 66%
viability, T/C [27]: 58.1%
viability, T/C [28]: 11.2%
viability, T/C [29]: 0.14%
viability, T/C [30]: 86%
viability, T/C [31]: 78.8%
viability, T/C [32]: 66.3%
viability, T/C [33]: 55.5%
viability, T/C [34]: 15%
viability, T/C [35]: 0.21%

C#Cc1c(F)ccc2cc(O)cc(-c3ncc4c(N5CC6CCC(C5)N6)nc(OCC56CCCN5CC(F)C6)nc4c3F)c12 (configuration not stated) + CNC(C)C(=O)NC1CN(S(=O)(=O)c2cccc(S(=O)(=O)N3CCC4CCC(C(=O)NC(c5ccccc5)c5ccccc5)N4C(=O)C(NC(=O)C(C)NC)C3)c2)CCC2CCC(C(=O)NC(c3ccccc3)c3ccccc3)N2C1=O
IC50 [1]: > 10000 nM
IC50 [2]: > 10000 nM
IC50 [3]: > 10000 nM
IC50 [4]: > 10000 nM
IC50 [5]: > 10000 nM
viability, T/C [6]: 102%
viability, T/C [7]: 97.8%
viability, T/C [8]: 95.8%
viability, T/C [9]: 88.6%
viability, T/C [10]: 68.8%
viability, T/C [11]: 53%
viability, T/C [12]: 103%
viability, T/C [13]: 97.3%
viability, T/C [14]: 102%
viability, T/C [15]: 77%
viability, T/C [16]: 61.9%
viability, T/C [17]: 55.1%
viability, T/C [18]: 103%
viability, T/C [19]: 95.4%
viability, T/C [20]: 97.5%
viability, T/C [21]: 82.8%
viability, T/C [22]: 69.4%
viability, T/C [23]: 61.9%
viability, T/C [24]: 106%
viability, T/C [25]: 104%
viability, T/C [26]: 92.4%
viability, T/C [27]: 82.3%
viability, T/C [28]: 74.5%
viability, T/C [29]: 55.6%
viability, T/C [30]: 96.3%
viability, T/C [31]: 96.1%
viability, T/C [32]: 97%
viability, T/C [33]: 84.9%
viability, T/C [34]: 74%
viability, T/C [35]: 67%

NC(=O)C(=Cn1cnc(-c2cc(C(F)(F)F)cc(C(F)(F)F)c2)n1)c1cncnc1 + CCN1C(C(=O)NC23CCC(C(=O)O)(CC2)CC3)C(c2cccc(Cl)c2F)C2(C(=O)Nc3cc(Cl)ccc32)C12CCCCC2
IC50 (curve of first compound, second compound 0.03 µM): 24.8 nM
IC50 (curve of first compound, second compound 0.0949 µM): 8.01 nM
IC50 (curve of first compound, second compound 0.3 µM): < 0.949 nM
IC50 (curve of first compound, second compound 0.949 µM): < 0.949 nM
IC50 (curve of first compound, second compound 3 µM): < 0.949 nM
viability, T/C (second compound 0.03 µM, first compound 0.000949 µM): 102%
viability, T/C (second compound 0.03 µM, first compound 0.003 µM): 83.2%
viability, T/C (second compound 0.03 µM, first compound 0.00949 µM): 75.5%
viability, T/C (second compound 0.03 µM, first compound 0.03 µM): 49.4%
viability, T/C (second compound 0.03 µM, first compound 0.0949 µM): 8.49%
viability, T/C (second compound 0.03 µM, first compound 0.3 µM): 1.47%
viability, T/C (second compound 0.0949 µM, first compound 0.000949 µM): 73.5%
viability, T/C (second compound 0.0949 µM, first compound 0.003 µM): 70.8%
viability, T/C (second compound 0.0949 µM, first compound 0.00949 µM): 45.9%
viability, T/C (second compound 0.0949 µM, first compound 0.03 µM): 16.1%
viability, T/C (second compound 0.0949 µM, first compound 0.0949 µM): 5.19%
viability, T/C (second compound 0.0949 µM, first compound 0.3 µM): 0.5%
viability, T/C (second compound 0.3 µM, first compound 0.000949 µM): 40.5%
viability, T/C (second compound 0.3 µM, first compound 0.003 µM): 33.2%
viability, T/C (second compound 0.3 µM, first compound 0.00949 µM): 22.8%
viability, T/C (second compound 0.3 µM, first compound 0.03 µM): 5.64%
viability, T/C (second compound 0.3 µM, first compound 0.0949 µM): 1.54%
viability, T/C (second compound 0.3 µM, first compound 0.3 µM): 0.36%
viability, T/C (second compound 0.949 µM, first compound 0.000949 µM): 9.07%
viability, T/C (second compound 0.949 µM, first compound 0.003 µM): 5.81%
viability, T/C (second compound 0.949 µM, first compound 0.00949 µM): 5.57%
viability, T/C (second compound 0.949 µM, first compound 0.03 µM): 1.96%
viability, T/C (second compound 0.949 µM, first compound 0.0949 µM): 0.72%
viability, T/C (second compound 0.949 µM, first compound 0.3 µM): 0.32%
viability, T/C (second compound 3 µM, first compound 0.000949 µM): 4.84%
viability, T/C (second compound 3 µM, first compound 0.003 µM): 2.37%
viability, T/C (second compound 3 µM, first compound 0.00949 µM): 1.32%
viability, T/C (second compound 3 µM, first compound 0.03 µM): 1%
viability, T/C (second compound 3 µM, first compound 0.0949 µM): 0.92%
viability, T/C (second compound 3 µM, first compound 0.3 µM): 0.41%

Cn1ncnc1[C@H]1c2n[nH]c(=O)c3cc(F)cc(c23)N[C@@H]1c1ccc(F)cc1 + CNC(C)C(=O)NC1CN(S(=O)(=O)c2cccc(S(=O)(=O)N3CCC4CCC(C(=O)NC(c5ccccc5)c5ccccc5)N4C(=O)C(NC(=O)C(C)NC)C3)c2)CCC2CCC(C(=O)NC(c3ccccc3)c3ccccc3)N2C1=O
IC50 [1]: 16.2 nM
IC50 [2]: 17 nM
IC50 [3]: 17.7 nM
IC50 [4]: 14.7 nM
IC50 [5]: 16.6 nM
viability, T/C (second compound 0.01 µM, first compound 0.000316 µM): 98.5%
viability, T/C (second compound 0.01 µM, first compound 0.001 µM): 109%
viability, T/C (second compound 0.01 µM, first compound 0.00316 µM): 101%
viability, T/C (second compound 0.01 µM, first compound 0.01 µM): 68%
viability, T/C [6]: 24.8%
viability, T/C [7]: 8.36%
viability, T/C (second compound 0.0316 µM, first compound 0.000316 µM): 98.9%
viability, T/C (second compound 0.0316 µM, first compound 0.001 µM): 111%
viability, T/C (second compound 0.0316 µM, first compound 0.00316 µM): 98.2%
viability, T/C (second compound 0.0316 µM, first compound 0.01 µM): 73.8%
viability, T/C [12]: 22.6%
viability, T/C [13]: 8.68%
viability, T/C (second compound 0.1 µM, first compound 0.000316 µM): 98.2%
viability, T/C (second compound 0.1 µM, first compound 0.001 µM): 106%
viability, T/C (second compound 0.1 µM, first compound 0.00316 µM): 91.2%
viability, T/C (second compound 0.1 µM, first compound 0.01 µM): 73.3%
viability, T/C [18]: 27.1%
viability, T/C [19]: 7.43%
viability, T/C (second compound 0.316 µM, first compound 0.000316 µM): 100%
viability, T/C (second compound 0.316 µM, first compound 0.001 µM): 112%
viability, T/C (second compound 0.316 µM, first compound 0.00316 µM): 111%
viability, T/C (second compound 0.316 µM, first compound 0.01 µM): 64.7%
viability, T/C [24]: 21.5%
viability, T/C [25]: 8%
viability, T/C (second compound 1 µM, first compound 0.000316 µM): 99.3%
viability, T/C (second compound 1 µM, first compound 0.001 µM): 105%
viability, T/C (second compound 1 µM, first compound 0.00316 µM): 107%
viability, T/C (second compound 1 µM, first compound 0.01 µM): 68.9%
viability, T/C [30]: 25.3%
viability, T/C [31]: 8.08%
